US11566007B2, “Ras inhibitors” (Revolution Medicines, Inc., priority 2019, dated 2023)

Tests used:
KRAS G12S = KRAS G12S (Homo sapiens (Human), UniProt P01116+P62937, G12S); assay: Ras-Raf (BRAF RBD) disruption / FRET / MOA assay, KRAS G12S; type: biochemical; conditions: Ras-Raf disruption/FRET/MOA assay; class symbols; read-out: KRAS G12S FRET data IC50
Procedure, shortened: (§1)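 Compound-driven ternary complex of nucleotide-loaded Ras with cyclophilin A, disrupting BRAF RBD binding. 10-point 3-fold dilution from 30 μM final, 3 h at 25° C, then anti-His Eu-W1024 (10 nM) and anti-GST allophycocyanin (50 nM) for 1.5 h. IC50 from TR-FRET ratio decrease versus DMSO.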

KRAS Q61H = KRAS Q61H (Homo sapiens (Human), UniProt P01116+P62937, Q61H); assay: Ras-Raf (BRAF RBD) disruption / FRET / MOA assay, KRAS Q61H; type: biochemical; conditions: Ras-Raf disruption/FRET/MOA assay; class symbols; read-out: KRAS Q61H FRET data IC50
Protocol: The purpose of this biochemical assay is to measure the ability of test compounds to facilitate ternary complex formation between a nucleotide-loaded Ras isoform and cyclophilin A; the resulting ternary complex disrupts binding to a BRAF^RBD construct, inhibiting Ras signaling through a RAF effector.
(§2) […]. Compound is present in plate wells as a 10-point 3-fold dilution series starting at a final concentration of 30 μM. After incubation at 25° C. for 3 hours, a mixture of Anti-His Eu-W1024 and anti-GST allophycocyanin is then added to assay sample wells at final concentrations of 10 nM and 50 nM, respectively, and the reaction incubated for an additional 1.5 hours. […] Compounds that facilitate disruption of a Ras:RAF complex are identified as those eliciting a decrease in the TR-FRET ratio relative to DMSO control wells.
Note—The following protocol describes a procedure for monitoring disruption of K-Ras G12C (GMP-PNP) binding to BRAF^RBD by a compound of the invention. This protocol may also be executed substituting other Ras proteins or nucleotides.
The purpose of this biochemical assay was to measure the ability of test compounds to facilitate ternary complex formation between a nucleotide-loaded K-Ras isoform and Cyclophilin A; the resulting ternary complex disrupts binding to a BRAF^RBD construct, inhibiting K-Ras signaling through a RAF effector. Data is reported as IC50 values.
as §2, with “Compound was” for “Compound is”, “allophycocyanin was” for “allophycocyanin is”, “a K-Ras:RAF” for “a Ras:RAF”, “complex were” for “complex are”

KRAS G12D = KRAS G12D (Homo sapiens (Human), UniProt P01116+P62937, G12D); assay: Ras-Raf (BRAF RBD) disruption / FRET / MOA assay, KRAS G12D; type: biochemical; conditions: Ras-Raf disruption/FRET/MOA assay; class symbols; read-out: KRAS G12D FRET data IC50
Procedure, shortened: as §1

KRAS G12V = KRAS G12V (Homo sapiens (Human), UniProt P01116+P62937, G12V); assay: Ras-Raf (BRAF RBD) disruption / FRET / MOA assay, KRAS G12V; type: biochemical; conditions: read-out: IC50* KRAS G12V FRET data
Procedure, shortened: as §1

K-Ras G12C = K-Ras G12C (Homo sapiens (Human), UniProt P01116+P62937, G12C); assay: Ras-Raf (BRAF RBD) disruption / FRET / MOA assay, KRAS G12C; type: biochemical; conditions: KRAS G12C; Ras-Raf disruption/FRET/MOA assay; read-out: IC50* KRAS G12C FRET data
Procedure, shortened: as §1

KRAS G13D = KRAS G13D (Homo sapiens (Human), UniProt P01116+P62937, G13D); assay: Ras-Raf (BRAF RBD) disruption / FRET / MOA assay, KRAS G13D; type: biochemical; conditions: read-out: IC50* KRAS G13D FRET data
Procedure, shortened: as §1

NCI-H358 (K-Ras G12C) = assay: CellTiter-Glo cell viability assay, NCI-H358; type: cell-based, human; conditions: Homo sapiens, NCI-H358, 120 h, NCI-H358, 5-day treatment; class symbols; read-out: Additional H358 Cell Viability assay data (K-Ras G12C, IC50)
Procedure, shortened: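 Viability of K-Ras mutant lines is measured by ATP luminescence after five days of compound treatment. Percent of DMSO control is calculated and dose-response data are fitted with a four-parameter logistic equation.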

NRAS G12C = NRAS G12C (Homo sapiens (Human), UniProt P01111+P62937, G12C); assay: Ras-Raf (BRAF RBD) disruption / FRET / MOA assay, NRAS G12C; type: biochemical; conditions: read-out: IC50* NRAS G12C FRET data
Procedure, shortened: as §1

K-Ras G13C = K-Ras G13C (Homo sapiens (Human), UniProt P01116+P62937, G13C); assay: Ras-Raf (BRAF RBD) disruption / FRET / MOA assay, KRAS G13C; type: biochemical; conditions: KRAS G13C; Ras-Raf disruption/FRET/MOA assay; read-out: IC50* KRAS G13C FRET data
Procedure, shortened: as §1

[1] = test system: NCI-H358 cells (K-Ras G12C); assay: Potency assay: pERK in NCI-H358 cells; type: cell-based, human; conditions: Homo sapiens, NCI-H358; H358 KRAS G12C; read-out: pERK EC50
Procedure, shortened: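 4 h cpd, 37 °C; 10-pt 3-fold series, 10 mM DMSO top stock, duplicates. Readout pERK: AlphaLISA SureFire Ultra or In-Cell Western (IR-800CW secondary, DRAQ5 DNA stain). IC50, 4-PL fit vs log conc.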

KRAS WT = KRAS WT (Homo sapiens (Human), UniProt P01116+P62937); assay: Ras-Raf (BRAF RBD) disruption / FRET / MOA assay, KRAS WT; type: biochemical; conditions: read-out: IC50* KRAS WT FRET data
Procedure, shortened: as §1

Chain of KRAS G12S (P01116-2 other isoform, or with tags, fused parts or gaps G12S): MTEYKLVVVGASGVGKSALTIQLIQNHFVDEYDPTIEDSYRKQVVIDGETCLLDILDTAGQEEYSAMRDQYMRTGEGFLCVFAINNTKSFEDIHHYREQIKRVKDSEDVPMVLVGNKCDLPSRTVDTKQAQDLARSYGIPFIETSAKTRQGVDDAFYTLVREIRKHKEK
Chain of KRAS G12S (P62937 whole entry): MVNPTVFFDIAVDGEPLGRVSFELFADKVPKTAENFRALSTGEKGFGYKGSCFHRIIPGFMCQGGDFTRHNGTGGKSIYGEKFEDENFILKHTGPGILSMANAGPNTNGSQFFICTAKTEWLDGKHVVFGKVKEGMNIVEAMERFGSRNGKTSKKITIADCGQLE
Chain of KRAS WT (P01116-2 other isoform, or with tags, fused parts or gaps): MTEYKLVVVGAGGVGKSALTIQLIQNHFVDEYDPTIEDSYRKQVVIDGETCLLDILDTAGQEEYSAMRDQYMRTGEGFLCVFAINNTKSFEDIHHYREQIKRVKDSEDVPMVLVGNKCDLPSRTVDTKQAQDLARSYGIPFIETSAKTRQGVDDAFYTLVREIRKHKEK
Chain of KRAS WT (P62937 whole entry): as the sequence (P62937 whole entry) above
Chain of K-Ras G12C (P01116-2 other isoform, or with tags, fused parts or gaps G12C): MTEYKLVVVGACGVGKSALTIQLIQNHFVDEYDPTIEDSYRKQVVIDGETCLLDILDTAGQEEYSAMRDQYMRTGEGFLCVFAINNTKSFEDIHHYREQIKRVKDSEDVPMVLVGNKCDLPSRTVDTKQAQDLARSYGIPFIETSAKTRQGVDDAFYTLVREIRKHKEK
Chain of K-Ras G12C (P62937 whole entry): as the sequence (P62937 whole entry) above
Chain of KRAS G12D (P01116-2 other isoform, or with tags, fused parts or gaps G12D): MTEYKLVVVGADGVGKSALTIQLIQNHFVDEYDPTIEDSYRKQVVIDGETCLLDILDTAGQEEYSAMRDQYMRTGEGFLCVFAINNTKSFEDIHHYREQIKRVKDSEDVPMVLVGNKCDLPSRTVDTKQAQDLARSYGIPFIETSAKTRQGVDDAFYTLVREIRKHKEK
Chain of KRAS G12D (P62937 whole entry): as the sequence (P62937 whole entry) above
Chain of KRAS G13D (P01116-2 other isoform, or with tags, fused parts or gaps G13D): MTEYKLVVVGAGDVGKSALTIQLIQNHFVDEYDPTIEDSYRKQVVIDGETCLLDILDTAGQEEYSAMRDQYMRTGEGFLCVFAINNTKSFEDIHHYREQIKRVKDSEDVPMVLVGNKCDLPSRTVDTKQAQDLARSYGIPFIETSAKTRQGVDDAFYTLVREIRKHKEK
Chain of KRAS G13D (P62937 whole entry): as the sequence (P62937 whole entry) above
Chain of NRAS G12C (P01111 whole entry G12C): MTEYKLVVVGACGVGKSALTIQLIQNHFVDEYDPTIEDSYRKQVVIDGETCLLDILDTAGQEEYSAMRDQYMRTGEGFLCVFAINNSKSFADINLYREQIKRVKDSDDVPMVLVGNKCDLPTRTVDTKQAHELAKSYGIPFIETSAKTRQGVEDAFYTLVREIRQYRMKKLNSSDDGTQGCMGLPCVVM
Chain of NRAS G12C (P62937 whole entry): as the sequence (P62937 whole entry) above
Chain of K-Ras G13C (P01116-2 other isoform, or with tags, fused parts or gaps G13C): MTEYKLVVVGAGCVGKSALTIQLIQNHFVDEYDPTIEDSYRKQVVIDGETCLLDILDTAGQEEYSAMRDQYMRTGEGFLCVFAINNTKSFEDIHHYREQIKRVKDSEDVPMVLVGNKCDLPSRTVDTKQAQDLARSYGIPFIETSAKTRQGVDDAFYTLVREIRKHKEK
Chain of K-Ras G13C (P62937 whole entry): as the sequence (P62937 whole entry) above
Chain of KRAS G12V (P01116-2 other isoform, or with tags, fused parts or gaps G12V): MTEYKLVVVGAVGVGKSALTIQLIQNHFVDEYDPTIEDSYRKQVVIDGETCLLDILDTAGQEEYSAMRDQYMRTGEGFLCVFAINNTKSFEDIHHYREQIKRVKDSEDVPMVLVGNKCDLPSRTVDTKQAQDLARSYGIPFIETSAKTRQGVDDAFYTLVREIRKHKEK
Chain of KRAS G12V (P62937 whole entry): as the sequence (P62937 whole entry) above
Chain of KRAS Q61H (P01116-2 other isoform, or with tags, fused parts or gaps Q61H): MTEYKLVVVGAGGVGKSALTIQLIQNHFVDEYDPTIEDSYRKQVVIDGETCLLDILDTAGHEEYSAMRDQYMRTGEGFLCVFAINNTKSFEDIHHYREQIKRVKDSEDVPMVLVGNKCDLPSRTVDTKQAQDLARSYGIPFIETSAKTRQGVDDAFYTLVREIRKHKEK
Chain of KRAS Q61H (P62937 whole entry, canonical isoform): as the sequence (P62937 whole entry) above

| Compound | IC50 (KRAS G12S) [µM] | IC50 (KRAS Q61H) [µM] | IC50 (KRAS G12D) [µM] | IC50 (KRAS G12V) [µM] | IC50 (K-Ras G12C) [µM] | IC50 (KRAS G13D) [µM] | IC50 (NCI-H358 (K-Ras G12C)) [µM] | IC50 (NRAS G12C) [µM] | IC50 (K-Ras G13C) [µM] | EC50 [1] [µM] | IC50 (KRAS WT) [µM] |
| --- | --- | --- | --- | --- | --- | --- | --- | --- | --- | --- | --- |
| C=CC(=O)N1CC[C@H](C(=O)N(C)[C@H](C(=O)N[C@H]2Cc3cc(O)cc(c3)-c3ccc4c(c3)c(c(-c3c(F)cccc3CCOC)n4CC)CC(C)(C)COC(=O)[C@@H]3CCCN(N3)C2=O)C(C)C)C1 [Example A025] | 1 to 10 | 1 to 10 | > 10 | – | – | – | – | – | – | – | – |
| C=CC(=O)N1CC[C@H](C(=O)N(C)[C@H](C(=O)N[C@H]2Cc3cc(O)cc(c3)-c3cc(F)c4c(c3)c(c(-c3ccccc3CCOC)n4CC)CC(C)(C)COC(=O)[C@@H]3CCCN(N3)C2=O)C(C)C)C1 [Example A053] | – | 1 to 10 | > 10 | – | – | – | – | – | – | – | – |
| C=CC(=O)N1CC[C@H](C(=O)N(C)[C@H](C(=O)N[C@H]2Cc3csc(n3)-c3ccc4c(c3)c(c(-c3cc(N5CCN(C)CC5)cnc3[C@H](C)OC)n4CC(F)(F)F)CC(C)(C)COC(=O)[C@@H]3CCCN(N3)C2=O)C(C)C)C1 [Example A410] | 0.1 to 1 | – | 1 to 10 | 0.1 to 1 | 0.01 to 0.1 | 0.1 to 1 | < 0.01 | 0.01 to 0.1 | 0.1 to 1 | < 5 | 0.1 to 1 |
| C=CC(=O)N1CC2CCC1CN2C(=O)N(C)[C@H](C(=O)N[C@H]1Cc2nc(cs2)-c2ccc3c(c2)c(c(-c2cccnc2[C@H](C)OC)n3CC)CC(C)(C)COC(=O)[C@@H]2CCCN(N2)C1=O)C(C)C [Example A420] | 0.1 to 1 | – | 1 to 10 | 0.1 to 1 | 0.1 to 1 | 1 to 10 | 0.01 to 0.1 | 0.1 to 1 | 0.1 to 1 | < 5 | 0.1 to 1 |
| CCn1c(-c2cccnc2[C@H](C)OC)c2c3cc(ccc31)-c1cccc(c1)C[C@H](NC(=O)[C@H](C(C)C)N(C)C(=O)[C@H]1CCN(C(=O)/C=C/CF)C1)C(=O)N1CCC[C@H](N1)C(=O)OCC(C)(C)C2 [Example A449] | 1 to 10 | – | > 10 | 1 to 10 | 0.1 to 1 | 1 to 10 | 0.01 to 0.1 | 0.1 to 1 | 0.1 to 1 | < 5 | 1 to 10 |
| C=CC(=O)N1CCC2(C1)OCN([C@H](C(=O)N[C@H]1Cc3cccc(c3)-c3ccc4c(c3)c(c(-c3cccnc3[C@H](C)OC)n4CC)CC(C)(C)COC(=O)[C@@H]3CCCN(N3)C1=O)C(C)C)C2=O (some centres unmarked) [Example A459] | 1 to 10 | – | 1 to 10 | 1 to 10 | 0.01 to 0.1 | 1 to 10 | 0.01 to 0.1 | 0.01 to 0.1 | 0.1 to 1 | < 5 | 1 to 10 |
| CCn1c(-c2cccnc2[C@H](C)OC)c2c3cc(ccc31)-c1cccc(c1)C[C@H](NC(=O)[C@H](C(C)C)N(C)C(=O)[C@@H]1CCN(C(=O)C#CC(C)(C)N3CCC3)C1)C(=O)N1CCC[C@H](N1)C(=O)OCC(C)(C)C2 [Example A476] | 1 to 10 | – | 1 to 10 | 1 to 10 | 0.01 to 0.1 | 1 to 10 | < 0.01 | 0.01 to 0.1 | 0.1 to 1 | < 5 | 1 to 10 |
| C=CC(=O)N1CC(OCC(C(=O)N[C@H]2Cc3cccc(c3)-c3ccc4c(c3)c(c(-c3cccnc3[C@H](C)OC)n4CC)CC(C)(C)COC(=O)[C@@H]3CCCN(N3)C2=O)C(C)C)C1 (some centres unmarked) [Example A483] | > 10 | – | > 10 | 1 to 10 | 0.1 to 1 | > 10 | < 0.01 | 0.1 to 1 | 1 to 10 | < 5 | 1 to 10 |
| C=CC(=O)N1CC[C@H](C(=O)N(C)[C@H](C(=O)N[C@H]2Cc3cccc(c3)-c3ccc4c(c3)c(c(-c3cccnc3[C@H](C)OC)n4CC#N)CC(C)(C)COC(=O)[C@@H]3CCCN(N3)C2=O)C(C)C)C1 [Example A510] | 1 to 10 | – | 1 to 10 | 1 to 10 | 0.01 to 0.1 | 1 to 10 | 0.01 to 0.1 | 0.01 to 0.1 | 0.1 to 1 | < 5 | 1 to 10 |
| CCn1c(-c2cccnc2[C@H](C)OC)c2c3cc(ccc31)-c1cccc(c1)C[C@H](NC(=O)[C@H](C(C)C)N(C)C(=O)C1CCN(C(=O)C#C[C@@H]3CC(F)(F)CN3C)C1)C(=O)N1CCC[C@H](N1)C(=O)OCC(C)(C)C2 (some centres unmarked) [Example A526] | 1 to 10 | – | > 10 | 1 to 10 | 0.01 to 0.1 | > 10 | < 0.01 | 0.01 to 0.1 | 1 to 10 | < 5 | 1 to 10 |
| CCn1c(-c2cccnc2[C@H](C)OC)c2c3cc(ccc31)-c1cc(O)cc(c1)C[C@H](NC(=O)[C@H](C(C)C)N(C)C(=O)[C@H]1CCN(C(=O)/C=C/C(F)(F)F)C1)C(=O)N1CCC[C@H](N1)C(=O)OCC(C)(C)C2 [Example A527] | 0.01 to 0.1 | – | 0.1 to 1 | 0.01 to 0.1 | < 0.01 | 0.01 to 0.1 | < 0.01 | < 0.01 | 0.01 to 0.1 | < 5 | 0.01 to 0.1 |
| CCn1c(-c2cccnc2[C@H](C)OC)c2c3cc(ccc31)-c1cccc(c1)C[C@H](NC(=O)[C@H](C(C)C)N(C)C(=O)[C@H]1CCN(C(=O)C#C[C@@H]3COCCN3C)C1)C(=O)N1CCC[C@H](N1)C(=O)OCC(C)(C)C2 [Example A528] | 1 to 10 | – | > 10 | 1 to 10 | 0.01 to 0.1 | > 10 | < 0.01 | 0.01 to 0.1 | 1 to 10 | < 5 | 1 to 10 |
| CCn1c(-c2cccnc2[C@H](C)OC)c2c3cc(ccc31)-c1cc(O)cc(c1)C[C@H](NC(=O)[C@H](C(C)C)N(C)C(=O)c1ncc(NC(=O)/C=C/CN(C)C)n1C)C(=O)N1CCC[C@H](N1)C(=O)OCC(C)(C)C2 [Example A529] | 0.1 to 1 | – | 0.1 to 1 | 0.1 to 1 | < 0.01 | 0.1 to 1 | 0.01 to 0.1 | < 0.01 | < 0.01 | < 5 | 0.1 to 1 |
| CCn1c(-c2cccnc2[C@H](C)OC)c2c3cc(ccc31)-c1cccc(c1)C[C@H](NC(=O)[C@H](C(C)C)N(C)C(=O)[C@H]1CCN(C(=O)C#CC3(N(C)C)CCOC3)C1)C(=O)N1CCC[C@H](N1)C(=O)OCC(C)(C)C2 (some centres unmarked) [Example A533] | 1 to 10 | – | > 10 | 1 to 10 | 0.01 to 0.1 | > 10 | < 0.01 | 0.01 to 0.1 | 1 to 10 | < 5 | 1 to 10 |
